Earlier results, collected in patent publication US9061077B2 (Emory University, priority 2008, dated 2015).

Legend:
[1] = cited from earlier work
[2] = eight human volunteers, single ingested dose of 10 mg; cited from earlier work

## O=C(O)CN(CC(=O)O)CC(=O)O [NTA, nitrilotriacetic acid]
[1]; based on two-year rat studies, nephrotoxic no-observed-adverse-effect level
  Acceptable daily intake in drinking water (Health Canada): 10 μg/kg bw per day
[1]; rats and mice, two years
  Dose inducing urinary tract tumors: about 840 mg/kg bw per day
[2]
  Adverse effects (physical examination, blood chemistry, urinalysis): no evidence of adverse effects
